Results: ChEMBL document CHEMBL3397033, “Bioactive benzofuran derivatives: moracins A-Z in medicinal chemistry” (Eur J Med Chem, 2015)
pIC50: −log10 of the molar value. Values after ≈ are worked out from the molar mass of the structure shown.

Assays:
[1] = Cytotoxicity against human HCT8 cells after 96 hrs by MTT assay; assay type: functional, cell-based; settings: HCT-8, 96 h
[2] = system: Pseudomonas aeruginosa; test: Antimicrobial activity against Pseudomonas aeruginosa; assay type: functional
[3] = system: Escherichia coli; test: Antimicrobial activity against Escherichia coli; assay type: functional
[4] = Cytotoxicity against human Bel7402 cells after 96 hrs by MTT assay; assay type: functional, cell-based; settings: Bel-7402, 96 h
[5] = system: A2780; test: Cytotoxicity against human A2780 cells after 96 hrs by MTT assay; assay type: functional, cell-based; settings: A2780, 96 h
[6] = target: Tyrosinase (Agaricus bisporus, UniProt O42713); test: Inhibition of mushroom tyrosinase
Chain of Tyrosinase (O42713 whole entry): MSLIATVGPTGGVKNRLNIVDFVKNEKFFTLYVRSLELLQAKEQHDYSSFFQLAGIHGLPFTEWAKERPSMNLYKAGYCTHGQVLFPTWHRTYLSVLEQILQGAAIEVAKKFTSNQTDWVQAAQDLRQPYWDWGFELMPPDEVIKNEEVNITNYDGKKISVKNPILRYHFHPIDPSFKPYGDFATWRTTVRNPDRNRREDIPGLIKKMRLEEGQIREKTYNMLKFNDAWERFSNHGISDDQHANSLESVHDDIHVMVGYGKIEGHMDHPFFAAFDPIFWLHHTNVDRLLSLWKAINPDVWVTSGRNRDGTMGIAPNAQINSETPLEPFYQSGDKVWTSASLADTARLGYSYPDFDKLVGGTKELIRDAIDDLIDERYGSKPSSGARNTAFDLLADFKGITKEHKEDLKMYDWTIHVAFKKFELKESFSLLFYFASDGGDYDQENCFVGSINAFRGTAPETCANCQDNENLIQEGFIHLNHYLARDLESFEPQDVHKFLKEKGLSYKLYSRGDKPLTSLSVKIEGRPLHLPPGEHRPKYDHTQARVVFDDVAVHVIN

[7] = Cytotoxicity against human BGC823 cells after 96 hrs by MTT assay; assay type: functional, cell-based; settings: BGC-823, 96 h
[8] = system: A549; test: Cytotoxicity against human A549 cells after 96 hrs by MTT assay; assay type: functional, cell-based; settings: A549, 96 h
[9] = Inhibition of alpha-glucosidase (unknown origin); parameters: species or system Homo sapiens
[10] = system: Morus alba; test: Antioxidant activity in mulberry leaves assessed as UV-stress-induced free radical scavenging activity measured as inhibition of blue formazan at 100 uM; assay type: functional
[11] = system: Klebsiella pneumoniae; test: Antimicrobial activity against Klebsiella pneumoniae; assay type: functional
[12] = system: Escherichia coli; test: Microbicidal activity against Escherichia coli by liquid microdilution assay; assay type: functional
[13] = system: Shigella dysenteriae; test: Microbicidal activity against Shigella dysenteriae by liquid microdilution assay; assay type: functional
[14] = system: Pseudomonas aeruginosa; test: Antimicrobial activity against Pseudomonas aeruginosa by liquid microdilution assay; assay type: functional
[15] = system: RAW264.7; test: Antiinflammatory activity against mouse RAW264.7 cells assessed as reduction of IFNgamma-induced NO production; assay type: functional, cell-based
[16] = Antioxidant activity assessed as DPPH radical scavenging activity measured as discoloration at 12.5 ug/ml; assay type: physicochemical
[17] = Antioxidant activity assessed as DPPH radical scavenging activity measured as discoloration at 25 ug/ml; assay type: physicochemical
[18] = system: Shigella dysenteriae; test: Antimicrobial activity against Shigella dysenteriae by liquid microdilution assay; assay type: functional
[19] = system: Staphylococcus aureus; test: Microbicidal activity against Staphylococcus aureus by liquid microdilution assay; assay type: functional
[20] = Antioxidant activity assessed as DPPH radical scavenging activity measured as discoloration at 100 ug/ml; assay type: physicochemical
[21] = system: Salmonella typhi; test: Antimicrobial activity against Salmonella typhi by liquid microdilution assay; assay type: functional, Salmonella enterica subsp. enterica serovar Typhi; settings: Salmonella enterica
[22] = system: Klebsiella pneumoniae; test: Microbicidal activity against Klebsiella pneumoniae by liquid microdilution assay; assay type: functional
[23] = system: Enterococcus faecalis; test: Antimicrobial activity against Streptococcus faecalis by liquid microdilution assay; assay type: functional
[24] = system: Microsporum audouinii; test: Antimicrobial activity against Microsporum audouinii by liquid microdilution assay; assay type: functional
[25] = system: RAW264.7; test: Antiinflammatory activity against mouse RAW264.7 cells assessed as reduction of LPS-induced NO production; assay type: functional, cell-based
[26] = Antioxidant activity assessed as DPPH radical scavenging activity measured as discoloration at 50 ug/ml; assay type: physicochemical
[27] = system: Klebsiella pneumoniae; test: Antimicrobial activity against Klebsiella pneumoniae by liquid microdilution assay; assay type: functional
[28] = system: Bacillus cereus; test: Microbicidal activity against Bacillus cereus by liquid microdilution assay; assay type: functional
[29] = system: Salmonella typhi; test: Microbicidal activity against Salmonella typhi by liquid microdilution assay; assay type: functional, Salmonella enterica subsp. enterica serovar Typhi; settings: Salmonella enterica
[30] = system: Staphylococcus aureus; test: Antimicrobial activity against Staphylococcus aureus by liquid microdilution assay; assay type: functional
[31] = system: Escherichia coli; test: Antimicrobial activity against Escherichia coli by liquid microdilution assay; assay type: functional
[32] = Antioxidant activity assessed as DPPH radical scavenging activity; assay type: physicochemical
[33] = system: Pseudomonas aeruginosa; test: Microbicidal activity against Pseudomonas aeruginosa by liquid microdilution assay; assay type: functional
[34] = system: Bacillus cereus; test: Antimicrobial activity against Bacillus cereus by liquid microdilution assay; assay type: functional
[35] = system: Enterococcus faecalis; test: Microbicidal activity against Streptococcus faecalis by liquid microdilution assay; assay type: functional
[36] = system: Microsporum audouinii; test: Microbicidal activity against Microsporum audouinii by liquid microdilution assay; assay type: functional
[37] = Antifungal activity against Cochliobolus miyabeanus; assay type: functional; settings: Bipolaris oryzae
[38] = Antifungal activity against Diaporthe nomurai; assay type: functional
[39] = Antifungal activity against Fusarium lateritium f. sp. mori; assay type: functional
[40] = system: Rosellinia necatrix; test: Antifungal activity against Rosellinia necatrix; assay type: functional
[41] = Antifungal activity against Stigmina mori; assay type: functional
[42] = Antifungal activity against Fusarium solani f. sp. mori; assay type: functional
[43] = Antifungal activity against Fusarium roseum; assay type: functional

CC(C)=CCc1cc2cc(-c3cc(O)cc(O)c3)oc2cc1O [MORACIN N]
IC50 [1]: > 10 mg/L
MIC [2]: > 100 mg/L
MIC [3]: > 100 mg/L
IC50 [4]: > 10 mg/L
IC50 [5]: > 10 mg/L
pIC50 [6]: 6.03
IC50 [7]: > 10 mg/L
IC50 [8]: > 10 mg/L
pIC50 [9]: 5.56
inhibition [10]: 76%
MIC [11]: > 100 mg/L

CC(C)(O)C(O)Cc1cc2cc(-c3cc(O)cc(O)c3)oc2cc1O (stereo not drawn)
MBC [12]: 625 mg/L (≈ 1810 µM)
MBC [13]: 312 mg/L (≈ 906 µM)
MIC [14]: 10 mg/L (≈ 29 µM)
pIC50 [15]: 4.84
Activity [16]: 34.6%
Activity [17]: 38.2%
MIC [18]: 78 mg/L (≈ 227 µM)
MIC [2]: > 100 mg/L
MBC [19]: 625 mg/L (≈ 1810 µM)
Activity [20]: 50%
MIC [3]: > 100 mg/L
MIC [21]: 156 mg/L (≈ 453 µM)
MBC [22]: 625 mg/L (≈ 1810 µM)
MIC [23]: 156 mg/L (≈ 453 µM)
MIC [24]: 312 mg/L (≈ 906 µM)
pIC50 [25]: 4.84
Activity [26]: 48%
MIC [27]: 312 mg/L (≈ 906 µM)
MBC [28]: 625 mg/L (≈ 1810 µM)
MBC [29]: 312 mg/L (≈ 906 µM)
MIC [30]: 312 mg/L (≈ 906 µM)
MIC [31]: 78 mg/L (≈ 227 µM)
EC50 [32]: 7.17 mg/L (≈ 20.8 µM)
MIC [11]: > 100 mg/L
MBC [33]: 39 mg/L (≈ 113 µM)
MIC [34]: 156 mg/L (≈ 453 µM)
MBC [35]: 312 mg/L (≈ 906 µM)
MFC [36]: 625 mg/L (≈ 1810 µM)

O=Cc1cc2cc(-c3cc(O)cc(O)c3)oc2cc1O
IC50 [1]: 6.3 mg/L (≈ 23.3 µM)
MIC [2]: > 100 mg/L
MIC [3]: > 100 mg/L
IC50 [4]: 6.8 mg/L (≈ 25.2 µM)
IC50 [5]: 6.9 mg/L (≈ 25.5 µM)
IC50 [7]: 7.6 mg/L (≈ 28.1 µM)
IC50 [8]: > 10 mg/L
MIC [11]: > 100 mg/L

CC(C)=CCc1c(O)ccc2cc(-c3cc(O)cc(O)c3)oc12
Activity [16]: 55%
Activity [17]: 62.25%
MIC [2]: > 100 mg/L
Activity [20]: 69.72%
MIC [3]: > 100 mg/L
Activity [26]: 67.87%
EC50 [32]: 5.06 mg/L (≈ 16.3 µM)
MIC [11]: > 100 mg/L

CC1=CCc2c(c(O)cc3cc(-c4cc(O)cc(O)c4)oc23)OC1
MIC [2]: > 100 mg/L
MIC [3]: > 100 mg/L
MIC [11]: > 100 mg/L

COc1cc2oc(-c3cc(O)cc(O)c3)cc2cc1CCC(C)(C)O
MIC [2]: > 100 mg/L
MIC [3]: > 100 mg/L
MIC [11]: > 100 mg/L

Oc1cc(O)cc(-c2cc3cc4ccoc4cc3o2)c1
IC50 [1]: 6.4 mg/L (≈ 24 µM)
MIC [2]: > 100 mg/L
MIC [3]: > 100 mg/L
IC50 [4]: 5.9 mg/L (≈ 22.2 µM)
IC50 [5]: 5.9 mg/L (≈ 22.2 µM)
IC50 [7]: 3.8 mg/L (≈ 14.3 µM)
IC50 [8]: 7.3 mg/L (≈ 27.4 µM)
MIC [11]: > 100 mg/L

CC1=CCc2c(ccc3cc(-c4cc(O)cc(O)c4)oc23)OC1
MIC [37]: 50 mg/L (≈ 162 µM)
MIC [38]: 50 mg/L (≈ 162 µM)
MIC [39]: 500 mg/L (≈ 1620 µM)
MIC [2]: > 100 mg/L
MIC [3]: > 100 mg/L
MIC [40]: 15 mg/L (≈ 48.6 µM)
MIC [41]: 50 mg/L (≈ 162 µM)
MIC [42]: 500 mg/L (≈ 1620 µM)
MIC [11]: > 100 mg/L
MIC [43]: 15 mg/L (≈ 48.6 µM)

COc1cc2oc(-c3cc(O)cc(O)c3)cc2cc1O
MIC [2]: > 100 mg/L
MIC [3]: > 100 mg/L
MIC [11]: > 100 mg/L

C/C(=C/Cc1c(O)c2c(c3cc(-c4cc(O)cc(O)c4)oc13)C=CC(C)(C)O2)CCCC(C)(C)O
IC50 [1]: 9.2 mg/L (≈ 19.2 µM)
MIC [2]: > 100 mg/L
MIC [3]: > 100 mg/L
IC50 [4]: > 10 mg/L
IC50 [5]: > 10 mg/L
IC50 [7]: 8.3 mg/L (≈ 17.3 µM)
IC50 [8]: > 10 mg/L
MIC [11]: > 100 mg/L

CC1(C)Oc2cc3oc(-c4cc(O)cc(O)c4)cc3cc2C(O)C1O (stereo not drawn)
MIC [2]: > 100 mg/L
MIC [3]: > 100 mg/L
MIC [11]: > 100 mg/L
